From patent EP0137426A2, “2-Mercaptothiazole derivatives, process for their preparation and utilization of 2-mercaptothiazole derivatives in pharmaceutical compounds” (BAYER AG, priority 1983, dated 1985)

Legend:
[1] = tested on: TXA2; test: Inhibition of thromboxane-induced isometric contraction of rabbit aortic strips (TXA2 generated from washed human platelets); assay type: cell-based, Kaninchen; details: Oryctolagus cuniculus, Platelet, thromboxane-induced vessel contraction, read-out: Hemmung (%) (x̄ ± SEM); for inhibition at 30 µg/mL: Konzentration 3 x 10^-5 g/ml
Procedure: Gefäßkonstriktorische Wirkung
Die gefäßkonstriktorische Wirkung von Thromboxan wird mit Hilfe der isometrischen Kontraktion von Kaninchenaortenstreifen gemessen (Furchtgott, R. F; Bhadrakom, S. J., Pharmacol. Exp. Ther. 108, 129 - 143, 1953). Männliche Kaninchen (Russen, Gewicht 1,8 - 2 kg) werden mit Pento- -barbital getötet. Die Brustaorta wird entnommen und spiral--förmig aufgeschnitten. Die Streifen (Breite 2 - 3 mm, Länge 3 cm) werden unter einer Spannung von 2 g in 10 ml - Organbädern, die Carbogen durchperlten Krebs-Henseleit-Puffer von 37°C enthalten, suspendiert. Zur Erhöhung der Spezifität der Methode enthält der Puffer folgende Inhibitoren (jeweils 100 µg/l): Propanololhydrochlorid, Phentolamin, Cyproheptadin, Atropin, Mebhydrolin und Indometacin. Die Kontraktionen werden nach Erreichen eines konstanten Basaltonus durch TXA2, generiert aus gewaschenen Human-Thrombozyten, ausgelöst.
Zur Präparation der Thrombozytensuspension wird Humanblut in 1 %iger EDTA-Lösung aufgenommen und bei 150 G 20 Minuten lang zentrifugiert. Das plättchenreiche Plasma wird abgehebert und bei 750 G für 20 Minuten zentrifugiert. Das plättchenarme Plasma wird abdekantiert und die verbleibenden Plättchen in Puffer (0,15 M NaCl, 0,15 M Tris/ HC1 pH 7.4, 77 mM EDTA; 90 : 8 : 2) aufgenommen.
Die Thromboxan-Generation erfolgt durch Stimulation der Plättchen mit Thrombin bei 37°C unter Rühren. Nach 30 sec wird die Plättchensuspension zu dem mit Prüfsubstanz bzw. Lösungsmittel vorbehandelten Aortenstreifen gegeben und damit die Kontraktionen ausgelöst. Die prozentuale Hemmung errechnet sich aus den entsprechenden Ausschlägen.
An den in der folgenden Tabelle 1 genannten Verbindungen wurde die spezifische Hemmung der durch Thromboxan induzierten Gefäßkontraktionen bestimmt.

[2] = tested on: Thrombozyten; test: Inhibition of collagen-induced platelet aggregation in platelet-rich plasma (turbidimetric, Born); assay type: cell-based; details: Homo sapiens, Konzentration 3 x 10^-5 g/ml, PRP, 37°C, read-out: Hemmung (%) (x̄ ± SEM)
Procedure: Thrombocytenaggregationshemmung
Für die Bestimmung der thrombocytenaggregationshemmenden Wirkung wird Blut von gesunden Spendern, die mindestens 14 Tage lang kein Medikament eingenommen hatten, verwendet. Das Blut wird in 3.8 %iger Natriumcitratlösung aufgenommen. Plättchenreiches Plasma (PRP) wird durch 20 min. lange Zentrifugation bei 150 G bei Raumtemperatur gewonnen (Jürgens/Beller: Klinische Methoden der Blutgerinnungsanalyse; Thieme-Verlag, Stuttgart 1959). Die Plättchenaggregation wird nach der turbidometrischen Methode (Born, G. V. R.: J. Physiol. 162 67, 1962) im Aggregometer bei 37°C bestimmt. Hierzu wird PRP mit Prüfsubstanz bei 37°C inkubiert und anschließend die Aggregation durch Zugabe einer Kollagensuspension ausgelöst. Die prozentuale Hemmung errechnet sich aus den entsprechenden Ausschlägen.
An den in der folgenden Tabelle 2 genannten Verbindungen wurde die Hemmung der Kollagen-induzierten Thrombozytenaggregation untersucht.

[3] = tested on: TXA2; details: literature: Tanaka, Harada, Katori, Prostaglandins 17, 235, 1979; cited from earlier work

Row | Structure (SMILES) | inhibition at 30 µg/mL [1] [%] | inhibition at 30 µg/mL [2] [%] | further results
1 | O=C(O)CCCSc1nc2ccccc2s1 [Beispiel 9] | 84 ± 3 | 52 | inhibition at 100 µg/mL ([1]; Konzentration 1 x 10^-4 g/ml): 100%; inhibition at 10 µg/mL ([1]; Konzentration 1 x 10^-5 g/ml): 58 ± 7%; inhibition at 1 µg/mL ([1]; Konzentration 1 x 10^-6 g/ml): 16 ± 7%; inhibition at 3 µg/mL ([1]; Konzentration 3 x 10^-6 g/ml): 34 ± 6%
2 | O=C(O)CCCSc1nc2cc(F)c(F)cc2s1 [Beispiel 11a] | 82 ± 1 |  | 
3 | O=C(O)CCCSc1nc(Cl)c(Cl)s1 [Beispiel 21] | 59 ± 6 | 69 | 
4 | O=C(O)CCCCSc1nc(Cl)c(Cl)s1 [Beispiel 23] | 47 ± 10 |  | 
5 | O=C(O)CCCCSc1nc2ccccc2s1 [Beispiel 25] | 31 ± 18 |  | 
6 | CCOC(=O)c1c(C)cc2c(CO)n[nH]c(=O)c2c1C [Phthalazinol] |  |  | Wirkung als spezifischer TXA2-Antagonist [3]: nicht als spezifischer TXA2-Antagonist
